Nine compounds from patent US20260232682A1, “GSPT1 DEGRADER COMPOUNDS” (Captor Therapeutics S.A., priority 2023, published 2026) can be followed below.

Test [1] concerns the target T1, GSPT1-HiBiT protein in GSPT1-HiBiT HEK293 cells (Homo sapiens, UniProt P15170+Q96SW2).
T1 construct: endogenous in cells; host or cells: HEK293 (CRISPR/Cas9 knock-in of HiBiT at the GSPT1 locus)
The test is described as follows: GSPT1 degradation assay using HiBiT system (Nano-Glo HiBiT lytic assay). Format: cell-based. As to conditions: 6 hours treatment; for DC50: read-out: HiBiT lytic assay Geomean absolute DC50. An excerpt:
The effect of selected compounds of the invention on GSPT1 protein levels was investigated, using the GSPT1-HiBiT HEK293 cell line and the Nano-Glo HiBiT degradation assay protocol below.
GSPT1-HiBiT HEK293 cells were generated in-house using the HEK293 parental cells (ATCC, cat. no 70016364) and the CRISPR/Cas9 system. HEK293 cells were transformed with pSpCas9-BB-2A-Puro v2.0 plasmid carrying gRNA targeting the C-terminus of GSPT1 and ssODN template containing the HiBiT tag sequence with flanking homology sequences. Neon Transfection System (Thermo Fisher Scientific) was used for electroporation. HEK293 GSPT1-HiBiT cells were cultured with DMEM Glutamax (Gibco) supplemented with 10% heat inactivated FBS (Gibco). After transfection the culture medium was changed to DMEM Glutamax with 10% heat-inactivated FBS and 1% Penicillin-Streptomycin (Biowest) supplemented with Puromycin (2 μg/ml; Invivogen) for clonal selection. In order to isolate single cell clones for further validation and analysis, limiting dilution cloning in 96-well plates was performed. When the single clones reached confluency, HiBiT Lytic Assay (Promega) was performed in order to identify HiBiT positive clones. The clone selected for further studies was verified and validated using genotyping and HiBiT Blotting (Promega).
Cells were maintained in DMEM Glutamax medium, supplemented with 1% penicillin/streptomycin and 10% Fetal Bovine Serum (FBS) at 37° C., 5% CO2. Compounds were stored frozen as 20 mM DMSO stocks.
For the Nano-Glo HiBiT assay, cells were seeded onto 384-well white solid bottom plate at 2×10^3 cells/well in 40 μL using the Agilent BioTek MultiFlo FX Multimode Dispenser and incubated overnight. Following overnight incubation (37° C., 5% CO2) cells were treated with the test compounds and vehicle only (DMSO) control using the Echo 555 Liquid Handler. Twelve data-point compound titration curve with concentrations ranging from 10 μM to 0.03 nM was used. Final DMSO concentration was kept constant at 0.25% v/v across the assay plate. After 6 hours of incubation (37° C., 5% CO2), plates were removed from the incubator and let to equilibrate to RT. Luminescent signal detection was conducted using the Nano-Glo HiBiT Lytic Detection System (Promega, cat. nr N3050). Nano-Glo HiBiT Lytic Reagent was prepared freshly by diluting the LgBiT Protein (1:100 vol/vol) and the Nano-Glo HiBiT Lytic Substrate (1:50 vol/vol) in the relevant volume of the Nano-Glo HiBiT Lytic Buffer. 40 μL of the HiBiT Lytic Reagent was added per well, plates were shaken to facilitate lysis (350 rpm, 5 min, RT) and incubated in the dark for the following 10 min. Luminescence was read using the PHERAstar multimode plate reader (BMG LABTECH). The raw data (the relative luminescence unit values, RLU) were uploaded under the relevant protocol and analysed in CDDVault data management platform. Luminescence (RLU) values were normalized to the controls, and reported absolute DC50 values and Dmax values were calculated in CDDVault using non-linear regression and appropriate equations.

In test [2] the target is CRBN/DDB1 protein complex (Homo sapiens, UniProt Q96SW2). Kind of test: CRBN displacement TR-FRET assay. Conditions: Thalidomide-Red tracer, 6×His-CRBN/DDB1; read-out: CRBN binding Ki. In outline: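 Test compound at various concentrations competed with 6.8 nM Thalidomide-Red tracer for 5 nM 6×His-CRBN/DDB1, detected with 0.5 nM anti-His-Eu cryptate in buffer with 1 mM DTT and 1% DMSO. Incubation ran 180 min at room temperature with a time-resolved fluorescence read-out. IC50 values were converted to Ki by Cheng–Prusoff using tracer Kd and protein and tracer concentrations.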
Sequence of CRBN/DDB1 protein complex (Q96SW2 whole entry, species assumed): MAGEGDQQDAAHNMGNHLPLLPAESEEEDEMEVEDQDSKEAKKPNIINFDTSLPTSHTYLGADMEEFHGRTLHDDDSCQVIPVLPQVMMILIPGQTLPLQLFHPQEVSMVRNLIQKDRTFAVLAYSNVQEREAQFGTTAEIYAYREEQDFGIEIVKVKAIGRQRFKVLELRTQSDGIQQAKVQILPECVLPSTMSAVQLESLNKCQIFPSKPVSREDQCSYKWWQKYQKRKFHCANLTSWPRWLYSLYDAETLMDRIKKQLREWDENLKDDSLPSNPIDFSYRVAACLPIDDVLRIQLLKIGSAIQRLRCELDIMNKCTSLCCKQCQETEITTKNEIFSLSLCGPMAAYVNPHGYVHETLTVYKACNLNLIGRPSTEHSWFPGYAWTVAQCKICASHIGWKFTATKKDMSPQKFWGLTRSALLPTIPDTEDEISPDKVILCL
Sequence of CRBN/DDB1 protein complex (Q16531 whole entry partner, species assumed): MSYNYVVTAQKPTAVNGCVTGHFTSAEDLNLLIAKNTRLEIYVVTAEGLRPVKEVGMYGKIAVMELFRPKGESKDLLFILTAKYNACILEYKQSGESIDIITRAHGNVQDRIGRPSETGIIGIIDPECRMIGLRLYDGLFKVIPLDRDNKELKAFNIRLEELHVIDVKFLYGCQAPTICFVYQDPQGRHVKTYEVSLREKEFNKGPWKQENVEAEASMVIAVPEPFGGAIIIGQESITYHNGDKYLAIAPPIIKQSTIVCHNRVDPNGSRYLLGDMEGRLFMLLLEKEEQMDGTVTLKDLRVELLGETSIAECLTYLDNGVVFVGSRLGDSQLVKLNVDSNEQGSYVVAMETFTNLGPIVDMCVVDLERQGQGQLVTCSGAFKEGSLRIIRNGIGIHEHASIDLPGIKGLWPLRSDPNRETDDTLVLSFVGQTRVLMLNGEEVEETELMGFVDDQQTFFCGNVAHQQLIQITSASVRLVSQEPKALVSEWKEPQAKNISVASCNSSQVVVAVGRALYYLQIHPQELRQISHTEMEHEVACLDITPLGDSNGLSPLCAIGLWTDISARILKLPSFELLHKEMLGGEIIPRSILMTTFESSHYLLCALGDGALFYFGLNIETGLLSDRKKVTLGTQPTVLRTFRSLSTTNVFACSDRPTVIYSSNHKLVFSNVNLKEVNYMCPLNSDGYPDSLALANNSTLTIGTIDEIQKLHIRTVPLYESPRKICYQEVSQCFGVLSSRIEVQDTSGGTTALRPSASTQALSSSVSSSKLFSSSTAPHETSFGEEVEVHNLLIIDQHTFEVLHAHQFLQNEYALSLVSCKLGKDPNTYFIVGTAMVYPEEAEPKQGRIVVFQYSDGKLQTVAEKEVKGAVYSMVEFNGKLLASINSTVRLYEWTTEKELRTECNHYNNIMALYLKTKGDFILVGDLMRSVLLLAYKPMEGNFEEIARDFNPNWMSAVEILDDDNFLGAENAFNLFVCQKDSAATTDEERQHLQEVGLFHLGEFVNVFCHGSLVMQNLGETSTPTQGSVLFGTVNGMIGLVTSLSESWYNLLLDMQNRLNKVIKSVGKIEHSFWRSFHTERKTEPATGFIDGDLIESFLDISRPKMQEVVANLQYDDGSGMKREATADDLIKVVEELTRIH
In general terms: TR-FRET usually uses a lanthanide donor and a delayed reading to cut background.

Test [3] addresses [GSPT1]-[compound of formula (I)]-[CRBN/DDB1] complex (Homo sapiens, UniProt P15170+Q96SW2). The test is described as follows: AlphaLISA ternary complex formation assay (GSPT1). Format: binding. As to conditions: 0.5 h; 1 μM compound; normalized to reference compound CC-885; read-out: Normalized AlphaLISA ternary complex average signal at 1 μM molecule. In outline: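 Biotinylated GSPT1 on streptavidin donor beads and 6×His-CRBN/DDB1 on anti-His acceptor beads (each 200 nM before mixing) in HBS pH 7.4 with 0.1% Tween-20 and 1 mM DTT, 2% DMSO final, 30 min at 25 °C. AlphaLISA luminescence is normalized between DMSO background and the reference compound's maximum.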

Sequence of [GSPT1]-[compound of formula (I)]-[CRBN/DDB1] complex (P15170 whole entry): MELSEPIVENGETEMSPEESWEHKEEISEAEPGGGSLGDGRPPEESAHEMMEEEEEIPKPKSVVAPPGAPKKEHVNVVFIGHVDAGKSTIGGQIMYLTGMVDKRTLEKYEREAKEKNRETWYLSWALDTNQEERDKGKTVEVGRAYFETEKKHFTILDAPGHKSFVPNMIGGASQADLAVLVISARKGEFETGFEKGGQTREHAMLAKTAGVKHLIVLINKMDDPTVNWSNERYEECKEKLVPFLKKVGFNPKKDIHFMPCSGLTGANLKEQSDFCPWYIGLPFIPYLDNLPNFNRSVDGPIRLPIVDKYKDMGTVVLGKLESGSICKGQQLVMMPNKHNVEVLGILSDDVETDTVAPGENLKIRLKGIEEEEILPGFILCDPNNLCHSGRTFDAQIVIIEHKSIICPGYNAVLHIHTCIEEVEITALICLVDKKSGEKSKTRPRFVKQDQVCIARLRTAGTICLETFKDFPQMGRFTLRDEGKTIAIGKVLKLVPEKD
Sequence of [GSPT1]-[compound of formula (I)]-[CRBN/DDB1] complex (Q96SW2 whole entry): as the sequence (Q96SW2 whole entry, species assumed) above
Sequence of [GSPT1]-[compound of formula (I)]-[CRBN/DDB1] complex (Q16531 whole entry partner): as the sequence (Q16531 whole entry partner, species assumed) above
T1 sequence (P15170 whole entry): as the sequence (P15170 whole entry) above
T1 sequence (Q96SW2 whole entry): as the sequence (Q96SW2 whole entry, species assumed) above
T1 sequence (Q16531 whole entry partner): as the sequence (Q16531 whole entry partner, species assumed) above

In the case of `Cc1ccc(NC(=O)OCc2ccc3cc(N4CCC(=O)NC4=O)c(C)nc3c2)cc1Cl` [Compound 28, (3-(2,4-dioxotetrahydropyrimidin-1(2H)-yl)-2-methylquinolin-7-yl)methyl (3-chloro-4-methylphenyl)carbamate], in test [1], the Dmax (in general, the greatest extent of degradation seen) was not below 75% and the DC50 (commonly the concentration at which degradation of the target reaches its halfway point) was 10 to 50 nM. In addition, the Ki – broadly, a measure of affinity in units of concentration, obtained from inhibition or displacement – in test [2] was in the range of 500 to 1000 nM. Besides, the activation at 1 µM in test [3] fell in the range of 10 to 50%.

In the case of `[2H]C([2H])(OC(=O)Nc1cc(C(C)(C)C)no1)c1ccc2cc(C3CCC(=O)NC3=O)c(C)nc2c1` (stereo not drawn) [Compound 82, (3-(2,6-dioxopiperidin-3-yl)-2-methylquinolin-7-yl)methyl-d2 (3-(tert-butyl)isoxazol-5-yl)carbamate], in test [1], the Dmax was not below 75% and the DC50 was less than 10 nM. Also, in test [2], the Ki is less than 500 nM. The activation at 1 µM in test [3] was more than 50%.

Regarding `Cc1nc2cc(COC(=O)Nc3cccc(C(C)(C)C)c3)ccc2cc1C1CCC(=O)NC1=O` (stereo not drawn) [Compound 9, (3-(2,6-dioxopiperidin-3-yl)-2-methylquinolin-7-yl)methyl (3-(tert-butyl)phenyl)carbamate], in test [1], the Dmax was not below 75% and the DC50 is 10 to 50 nM. Further, in test [2], the Ki was more than 1000 nM. Also, the activation at 1 µM in test [3] lay in the range of 10 to 50%.

As to `Cc1nc2cc(COC(=O)Nc3cc(C(F)(F)F)no3)ccc2cc1C1CCC(=O)NC1=O` (stereo not drawn) [Compound 71, (3-(2,6-dioxopiperidin-3-yl)-2-methylquinolin-7-yl)methyl (3-(trifluoromethyl)isoxazol-5-yl)carbamate], in test [1], the Dmax was not below 75% and the DC50 is 50 to 100 nM. Besides, in test [2], the inhibition constant (Ki) is more than 1000 nM. Besides, the activation at 1 µM in test [3] was more than 50%.

On to `COc1ccc(NC(=O)OCc2ccc3cc(C4CCC(=O)NC4=O)c(C)nc3c2)nn1` (stereo not drawn) [Compound 45, (3-(2,6-dioxopiperidin-3-yl)-2-methylquinolin-7-yl)methyl (6-methoxypyridazin-3-yl)carbamate], for which, in test [1], the Dmax is not below 75% and the DC50 fell in the range of 10 to 50 nM. The Ki in test [2] is more than 1000 nM. Moreover, the activation at 1 µM in test [3] lay within 10 to 50%.

Consider `Cc1nc2cc(COC(=O)Nc3cc(C4(C(F)(F)F)CC4)no3)ccc2cc1C1CCC(=O)NC1=O` (stereo not drawn) [Compound 81, (3-(2,6-dioxopiperidin-3-yl)-2-methylquinolin-7-yl)methyl (3-(1-(trifluoromethyl)cyclopropyl)isoxazol-5-yl)carbamate], for which, in test [1], the Dmax was not below 75% and the 50% degradation concentration (DC50) was less than 10 nM. Further, the inhibition constant (Ki) in test [2] is less than 500 nM. In addition, in test [3], the activation at 1 µM was more than 50%.

Turning to `Cc1nc2cc(COC(=O)Nc3cccc(OC(F)(F)F)c3)ccc2cc1C1CCC(=O)NC1=O` (stereo not drawn) [Compound 19, (3-(2,6-dioxopiperidin-3-yl)-2-methylquinolin-7-yl)methyl (3-(trifluoromethoxy)phenyl)carbamate], in test [1], the Dmax was not below 75% and the DC50 was less than 10 nM. In test [2], the Ki is more than 1000 nM. Also, the activation at 1 µM in test [3] fell in the range of 10 to 50%.

Turning to `Cc1nc2cc(COC(=O)Nc3csc(-c4ccccc4)c3)ccc2cc1C1CCC(=O)NC1=O` (stereo not drawn) [Compound 37, (3-(2,6-dioxopiperidin-3-yl)-2-methylquinolin-7-yl)methyl (5-phenylthiophen-3-yl)carbamate], in test [1], the Dmax was not below 75% and the DC50 lay in the range of 10 to 50 nM. Besides, the Ki in test [2] is 500 to 1000 nM. Also, the activation at 1 µM in test [3] is 10 to 50%.

As to `Cc1ccc(NC(=O)OCc2cc(F)c3cc(C4CCC(=O)NC4=O)c(C)nc3c2)cc1Cl` (stereo not drawn) [Compound 22, (3-(2,6-dioxopiperidin-3-yl)-5-fluoro-2-methylquinolin-7-yl)methyl (3-chloro-4-methylphenyl)carbamate], in test [1], the Dmax is not below 75% and the DC50 fell in the range of 10 to 50 nM. For the same compound, the Ki in test [2] is more than 1000 nM. Also, the activation at 1 µM in test [3] was more than 50%.
